From patent US4784958A, “1,4-dihydropyridine derivatives and 1,4-dihydroquinoline derivatives radioactively labelled with ^125 I, their preparation, and their use in testing medicaments” (priority 1983, dated 1988)
Like-named read-outs stand apart in the source and are kept apart here.

Legend:
[1] = molecular target: T1, guinea-pig skeletal muscle membranes (1,4-dihydropyridine receptors / calcium channel) (Cavia porcellus, UniProt A0A286X7I0); assay: Competition radioreceptor assay with the ^125 I-labelled 1,4-dihydropyridine of Example 2; format: binding
T1 construct: membrane fractions from guinea-pig brain, cardiac muscle and skeletal muscle; from tissue; host or cells: guinea-pig skeletal muscle membranes
T1 sequence (A0A286X7I0 1-1867): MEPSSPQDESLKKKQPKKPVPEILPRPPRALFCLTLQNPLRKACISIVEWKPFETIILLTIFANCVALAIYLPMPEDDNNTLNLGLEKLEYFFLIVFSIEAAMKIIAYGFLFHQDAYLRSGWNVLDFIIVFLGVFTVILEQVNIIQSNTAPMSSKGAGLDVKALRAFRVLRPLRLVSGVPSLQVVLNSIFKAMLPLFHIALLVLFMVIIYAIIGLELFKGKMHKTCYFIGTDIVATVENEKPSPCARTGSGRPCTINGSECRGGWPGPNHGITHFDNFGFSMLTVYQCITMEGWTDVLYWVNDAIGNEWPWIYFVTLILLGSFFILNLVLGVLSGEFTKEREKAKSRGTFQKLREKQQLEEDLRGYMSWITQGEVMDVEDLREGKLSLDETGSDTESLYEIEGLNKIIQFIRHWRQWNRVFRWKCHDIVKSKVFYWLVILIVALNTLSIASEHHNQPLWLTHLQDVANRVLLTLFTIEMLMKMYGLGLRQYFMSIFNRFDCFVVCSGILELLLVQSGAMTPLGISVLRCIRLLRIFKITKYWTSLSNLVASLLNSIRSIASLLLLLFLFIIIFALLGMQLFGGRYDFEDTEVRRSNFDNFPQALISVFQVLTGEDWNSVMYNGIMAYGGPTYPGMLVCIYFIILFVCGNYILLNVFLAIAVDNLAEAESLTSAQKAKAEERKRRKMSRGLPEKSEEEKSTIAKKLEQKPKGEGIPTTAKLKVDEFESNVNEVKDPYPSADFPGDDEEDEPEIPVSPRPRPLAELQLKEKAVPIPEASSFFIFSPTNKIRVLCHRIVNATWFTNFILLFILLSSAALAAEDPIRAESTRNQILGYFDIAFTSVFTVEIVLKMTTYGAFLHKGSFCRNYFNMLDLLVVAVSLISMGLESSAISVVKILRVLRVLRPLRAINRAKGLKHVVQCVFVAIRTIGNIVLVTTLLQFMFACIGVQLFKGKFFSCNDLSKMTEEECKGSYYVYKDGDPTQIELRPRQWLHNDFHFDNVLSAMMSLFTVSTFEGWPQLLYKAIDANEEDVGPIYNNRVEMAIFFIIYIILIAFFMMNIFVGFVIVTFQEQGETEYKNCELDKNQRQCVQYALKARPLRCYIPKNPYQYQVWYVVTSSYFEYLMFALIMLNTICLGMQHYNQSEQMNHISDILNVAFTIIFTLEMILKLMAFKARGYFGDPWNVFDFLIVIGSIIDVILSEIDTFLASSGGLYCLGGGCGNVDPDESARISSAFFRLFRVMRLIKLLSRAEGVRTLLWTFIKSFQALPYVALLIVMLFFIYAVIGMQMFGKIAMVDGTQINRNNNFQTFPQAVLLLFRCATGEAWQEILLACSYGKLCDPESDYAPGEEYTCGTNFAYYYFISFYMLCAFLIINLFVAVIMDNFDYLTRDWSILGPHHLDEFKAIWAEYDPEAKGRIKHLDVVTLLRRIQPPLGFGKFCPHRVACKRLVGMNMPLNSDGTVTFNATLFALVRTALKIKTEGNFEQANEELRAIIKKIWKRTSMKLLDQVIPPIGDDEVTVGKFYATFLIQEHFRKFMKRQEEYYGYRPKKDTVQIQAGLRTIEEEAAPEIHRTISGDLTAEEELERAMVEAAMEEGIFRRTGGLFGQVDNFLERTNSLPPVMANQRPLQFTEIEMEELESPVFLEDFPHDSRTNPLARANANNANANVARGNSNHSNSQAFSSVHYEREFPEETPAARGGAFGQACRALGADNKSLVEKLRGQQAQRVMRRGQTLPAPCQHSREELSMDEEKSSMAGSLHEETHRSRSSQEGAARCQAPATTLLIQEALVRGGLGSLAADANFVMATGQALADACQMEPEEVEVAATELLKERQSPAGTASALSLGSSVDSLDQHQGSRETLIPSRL
Experimental: In order to separate the free ligand from the bound ligand, 10% (w/v) polyethylene glycol 6000 was added to ice-cold 10 mM TRIS HCl buffer, pH 7.4, followed by 20 mM MgCl2 (3.5 ml), the sample was diluted, suction filtered in vacuo over a glass fibre filter, and the glass fibre filter was rewashed twice with 3.5 ml of the same buffer. The particle-bound radioactivity retained on the filters was then measured.
The data in Table 1 are mean values (±asymptotic standard deviation) from 3 independent experiments in which various calcium antagonists and derivatives or precursors of calcium antagonists were used as competitors with the ^125 I-labelled 1,4-dihydropyridine ("ligand") obtained in Example 2. Guinea-pig skeletal muscle membranes were used as receptor material. The concentration of the labelled ligand was 20-30 pmole/l and the experimental temperature was 25° C. 6 to 9 different concentrations of the checked substances were used (in each case as duplicate) and the measured binding data were optimally adapted by means of a computer program (DeLean A., Munson P. J., Rodbard D. (1978). Simultaneous analysis of families of sigmoid curves: application to bioassay, radioligand assay and physiological dose-response curves. Am J. Physiol. 4 E97-102). The stereospecifity of the binding for chiral 1,4-dihydropyridines was investigated as an important criterion for the receptor binding of the ^125 I-labelled 1,4-dihydropyridine in group 1. […] The EC50 value is the concentration of the substance stimulating a semi-maximum specific binding of the ligand.

[2] = Stability of the ^125 I-labelled 1,4-dihydropyridine (HPLC, thin layer chromatography); format: physicochemical
Experimental: The following formula was used to calculate the concentration of the free ligand: (T. a)-B, where T is the total concentration of the ligand, a is a factor describing the binding capacity of the ligand, and B is the concentration of the specifically bound ligand in equilibrium. The factor a was determined experimentally by saturating the radioactive ligand with binding sites (receptors) (described in FEBS Lett. 148, 331-337, 1982; Naunyn Schmiedeberg's Arch. Pharmacol 321, 7-10, 1982). The factor "a" was 0.5 for the asymmetric 1,4-dihydropyridine derivative, in agreement with the theoretically required capacity of the receptor (R) and (S) to differentiate enantiomers of the ^125 I-labelled 1,4-dihydropyridine (stereospecifity of the binding). The ^125 I-labelled 1,4-dihydropyridine is the racemic mixture of (R) and (S) enantiomers. A dissociation constant of 350 pmole/l (25° C.) was found for muscle membranes (not illustrated). The stability of the ^125 I-labelled 1,4-dihydropyridine was checked under the following conditions by conventional methods (HPLC, thin layeer chromatography): buffer 50 mM TRIS HCl, pH 7.4, 25° C., 4 hours; muscle membrane in buffer, 25° C., 4 hours; as well as storage in benzene or absolute ethanol at -20° C. for up to 21 days after preparation of the ligand. In no case were the radiochemical impurities greater than 10%.

[3] = molecular target: T2, 1,4-dihydropyridine receptors in guinea-pig brain membranes (Cavia porcellus, UniProt O35505); assay: Saturation analysis, binding of ^125 I-labelled 1,4-dihydropyridine to brain membranes; details: 25° C., read-out: dissociation constant (conclusion)
T2 construct: 1,4-dihydropyridine receptors in guinea-pig brain membranes; from tissue; host or cells: guinea-pig brain membranes
T2 sequence (O35505 whole entry): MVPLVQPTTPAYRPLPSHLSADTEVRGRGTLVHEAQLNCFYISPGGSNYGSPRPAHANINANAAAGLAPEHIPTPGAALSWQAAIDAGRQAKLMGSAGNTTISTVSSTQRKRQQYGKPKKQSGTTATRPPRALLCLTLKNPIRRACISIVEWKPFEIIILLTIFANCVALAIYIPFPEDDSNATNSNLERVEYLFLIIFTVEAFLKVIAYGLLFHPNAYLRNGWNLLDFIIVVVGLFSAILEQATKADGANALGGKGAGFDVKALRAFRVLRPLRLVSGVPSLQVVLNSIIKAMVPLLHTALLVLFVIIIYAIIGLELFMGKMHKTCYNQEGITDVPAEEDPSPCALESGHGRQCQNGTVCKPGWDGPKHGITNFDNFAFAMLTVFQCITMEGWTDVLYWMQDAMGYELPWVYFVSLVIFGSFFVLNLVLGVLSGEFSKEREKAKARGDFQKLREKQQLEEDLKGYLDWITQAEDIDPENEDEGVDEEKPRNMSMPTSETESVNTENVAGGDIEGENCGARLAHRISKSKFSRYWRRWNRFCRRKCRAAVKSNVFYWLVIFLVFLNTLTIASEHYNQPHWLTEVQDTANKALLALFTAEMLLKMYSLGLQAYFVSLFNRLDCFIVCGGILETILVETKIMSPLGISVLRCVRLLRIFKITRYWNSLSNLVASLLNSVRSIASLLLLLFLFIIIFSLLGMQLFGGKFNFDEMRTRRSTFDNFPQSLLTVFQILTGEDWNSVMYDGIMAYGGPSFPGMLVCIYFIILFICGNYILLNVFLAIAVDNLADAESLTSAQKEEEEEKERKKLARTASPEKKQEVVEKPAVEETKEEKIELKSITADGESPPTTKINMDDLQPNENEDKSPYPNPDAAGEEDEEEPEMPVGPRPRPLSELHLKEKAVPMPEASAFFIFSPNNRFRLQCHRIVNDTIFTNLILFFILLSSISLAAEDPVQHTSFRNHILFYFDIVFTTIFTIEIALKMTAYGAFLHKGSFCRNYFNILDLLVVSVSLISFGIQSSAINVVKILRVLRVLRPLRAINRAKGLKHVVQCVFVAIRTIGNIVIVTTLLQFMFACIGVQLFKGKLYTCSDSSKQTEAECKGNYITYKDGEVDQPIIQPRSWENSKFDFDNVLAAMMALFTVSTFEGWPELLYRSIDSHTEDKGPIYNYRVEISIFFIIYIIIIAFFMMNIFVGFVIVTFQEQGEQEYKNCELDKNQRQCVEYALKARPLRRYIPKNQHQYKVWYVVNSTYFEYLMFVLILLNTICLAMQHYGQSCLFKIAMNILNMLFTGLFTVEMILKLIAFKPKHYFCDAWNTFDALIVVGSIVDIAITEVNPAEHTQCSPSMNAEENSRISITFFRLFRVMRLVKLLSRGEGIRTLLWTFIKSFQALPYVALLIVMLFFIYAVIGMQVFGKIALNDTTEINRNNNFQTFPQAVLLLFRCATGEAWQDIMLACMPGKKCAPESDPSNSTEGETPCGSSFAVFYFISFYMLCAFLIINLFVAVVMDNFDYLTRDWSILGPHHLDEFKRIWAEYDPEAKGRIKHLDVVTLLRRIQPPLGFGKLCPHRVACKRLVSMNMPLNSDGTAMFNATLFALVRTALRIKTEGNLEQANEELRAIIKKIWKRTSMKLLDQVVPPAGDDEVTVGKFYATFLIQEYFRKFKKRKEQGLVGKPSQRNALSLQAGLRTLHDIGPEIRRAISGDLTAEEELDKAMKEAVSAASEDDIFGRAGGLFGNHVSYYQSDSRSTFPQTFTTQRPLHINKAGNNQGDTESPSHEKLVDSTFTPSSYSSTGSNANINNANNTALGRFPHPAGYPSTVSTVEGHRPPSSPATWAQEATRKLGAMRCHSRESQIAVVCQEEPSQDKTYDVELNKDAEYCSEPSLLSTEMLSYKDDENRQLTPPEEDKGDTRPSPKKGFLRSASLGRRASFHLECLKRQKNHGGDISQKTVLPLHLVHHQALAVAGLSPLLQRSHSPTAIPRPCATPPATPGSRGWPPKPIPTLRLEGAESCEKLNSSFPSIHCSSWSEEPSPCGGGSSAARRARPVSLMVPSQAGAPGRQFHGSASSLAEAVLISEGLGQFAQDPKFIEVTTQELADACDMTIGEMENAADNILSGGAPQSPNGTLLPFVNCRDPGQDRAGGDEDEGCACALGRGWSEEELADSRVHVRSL
Experimental: (§1) Aliquots of the obtained and ^125 I-labelled 1,4-dihydropyridine are dried in a stream of nitrogen, incubated with buffer (50 mM TRIS-HCl, pH 7.4, to which the protease inhibitor phenylmethylsulphonyl fluoride has been added (0.1 mmole/l)) and membrane fractions from guinea-pig brain, cardiac muscle and skeletal muscle (prepared as described in Drug Development 9: 63-98 (1983); Naunyn-Schmiedeberg's Arch. Pharmacol. 321: 80-83 (1983) and FEBS Lett 148: 331-337 (1982)) at 25° C. in 0.1 ml volume until equilibrium is reached, and the specific binding (defined as the difference in the binding of the ^125 I-labelled 1,4-dihydropyridine in the absence and presence of 1 μmole/l of Nimodipin) is measured by means of the filtration technique (to separate bound and free ^125 I-labelled 1,4-dihydropyridine). […] The particle-bound radioactivity retained on the filters was then measured.
(§2) The following formula was used to calculate the concentration of the free ligand: (T. a)-B, where T is the total concentration of the ligand, a is a factor describing the binding capacity of the ligand, and B is the concentration of the specifically bound ligand in equilibrium. The factor a was determined experimentally by saturating the radioactive ligand with binding sites (receptors) (described in FEBS Lett. 148, 331-337, 1982; Naunyn Schmiedeberg's Arch. Pharmacol 321, 7-10, 1982). […]

[4] = molecular target: T3, skeletal muscle membranes (1,4-dihydropyridine receptors) (Cavia porcellus, UniProt A0A286X7I0); assay: Saturation analysis, binding of ^125 I-labelled 1,4-dihydropyridine to skeletal muscle membranes; parameters: species or system guinea-pig; details: 25° C.
T3 construct: membrane fractions from guinea-pig brain, cardiac muscle and skeletal muscle; from tissue; host or cells: guinea-pig skeletal muscle membranes
T3 sequence (A0A286X7I0 1-1867): as the sequence (A0A286X7I0 1-1867) above
Experimental: as §1, §2

[5] = read-out: IC50 (50% inhibition of the specific binding of the ligand in the radioreceptor assay), guinea-pig skeletal muscle membranes, ligand 20-30 pmole/l, 25° C., mean ± asymptotic standard deviation, 3 independent experiments
[6] = guinea-pig skeletal muscle membranes, ligand 20-30 pmole/l, 25° C., mean ± asymptotic standard deviation, 3 independent experiments

Row | IC50 [1, 6] [nM] | Compound | further results
1 | – | 1,4-dihydro-2,6-dimethyl-4-(2-trifluoromethylphenyl)-3,5-pyridinecarboxylic acid 2-(aminoethyl)ethyl ester [Bay K 8644] | IC50 [1, 5]: 37 ± 5 nM
2 | 2 ± 0.05 | COC(=O)C1=C(C)NC(C)=C(C(=O)OC(C)C)C1c1cccc2nonc12 (single isomer, unassigned; (+)) [(+)205-033, isopropyl 4-(2,1,3-benzoxadiazole-4-yl)-1,4-dihydro-2,6-dimethyl-5-methoxycarbonylpyridine-3-carboxylate] | –
3 | 420 ± 67 | COC(=O)C1=C(C)NC(C)=C(C(=O)OC(C)C)C1c1cccc([N+](=O)[O-])c1 (single isomer, unassigned; (+)) [(+)Bay e 6927, isopropylmethyl 1,4-dihydro-2,6-dimethyl-4-(3-nitrophenyl)-3,5-pyridinedicarboxylate] | –
4 | 190 ± 50 | COc1ccc(CCN(C)CCCC(C#N)(c2cc(OC)c(OC)c(OC)c2)C(C)C)cc1OC (single isomer, unassigned; (+)) [(+)Methoxyverapamil, Methoxyverapamil] | –
5 | 7 ± 0.8 | COC(=O)C1=C(C)NC(C)=C(C(=O)OCCN(C)Cc2ccccc2)C1c1cccc([N+](=O)[O-])c1 (single isomer, unassigned; (+)) [(+)Nicardipine, 2,6-dimethyl-4-(3 nitrophenyl)-1,4-dihydropyridine-3,5-dicarboxylic acid 3-2(N-benzyl-N-methylamino)-ethylester-5-methylester] | –
6 | 198 ± 40 | COC(=O)C1=C(C)NC(C)=C(C(=O)OC(C)C)C1c1cccc2nonc12 (single isomer, unassigned; (-)) [(-)205-034, isopropyl 4-(2,1,3-benzoxadiazole-4-yl)-1,4-dihydro-2,6-dimethyl-5-methoxycarbonylpyridine-3-carboxylate] | –
7 | 3 ± 0.04 | COC(=O)C1=C(C)NC(C)=C(C(=O)OC(C)C)C1c1cccc([N+](=O)[O-])c1 (single isomer, unassigned; (-)) [(-)Bay e 6927, isopropylmethyl 1,4-dihydro-2,6-dimethyl-4-(3-nitrophenyl)-3,5-pyridinedicarboxylate] | –
8 | 42 ± 3 | COC(=O)C1=C(C)NC(C)=C(C(=O)OCCN(C)Cc2ccccc2)C1c1cccc([N+](=O)[O-])c1 (single isomer, unassigned; (-)) [(-)Nicardipine, 2,6-dimethyl-4-(3 nitrophenyl)-1,4-dihydropyridine-3,5-dicarboxylic acid 3-2(N-benzyl-N-methylamino)-ethylester 5-methylester] | –
9 | 21 ± 8 | COc1ccc(CCN(C)CCC[C@@](C#N)(c2cc(OC)c(OC)c(OC)c2)C(C)C)cc1OC [(-)Methoxyverapamil, Methoxyverapamil] | –
10 | – | CCOC(=O)C1=C(C)NC(C)=C(C(=O)O)C1c1cccc([N+](=O)[O-])c1 (stereo not drawn) [Bay M 5579] | IC50 [1, 5]: 1860 ± 300 nM
11 | 1250 ± 180 | CCOC(=O)C1=C(C)NC2=C(C(=O)OC2)C1c1ccccc1OC(F)F (stereo not drawn) [CGP 28392] | –
12 | – | CCOC(=O)C1=C(C)NC(C)=C(C(=O)OCCNC(=O)CCc2ccc(O)c([125I])c2)C1c1ccccc1C(F)(F)F (stereo not drawn) [^125 I-labelled 1,4-dihydropyridine] | stability (conclusion) [2]: sufficient stability; radiochemical impurities (stability) ([2]; 50 mM TRIS HCl pH 7.4, 25° C., 4 hours, muscle membrane in buffer, 25° C., storage in benzene or absolute ethanol at -20° C. up to 21 days): ≤ 10%; Kd [3]: < 1 nM; Kd ([4]; muscle membranes, read-out: dissociation constant (KD)): 0.35 nM; Kd ([4]; skeletal muscle membranes, read-out: dissociation constant (conclusion)): < 1 nM
13 | – | COc1ccc([C@@H]2Sc3ccccc3N(CCN(C)C)C(=O)[C@@H]2OC(C)=O)cc1 [d-cis-Diltiazem] | EC50 [1]: 960 ± 310 nM
14 | – | COc1ccc([C@H]2Sc3ccccc3N(CCN(C)C)C(=O)[C@H]2OC(C)=O)cc1 [l-cis-Diltiazem] | IC50 [1]: 3000 ± 1600 nM
